For one assay, the system named is UM-UC-9 engineered cells. Kind of assay: Cell proliferation / short-term viability assay, CellTiter-Glo 144 h. As to conditions: read-out: CTGlo 144 h UMUC9.5, G150. The format is cell-based, human. In short, it runs like this:
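Viability read by CellTiter-Glo 2.0 luminescence at day 7 versus DMSO-vehicle wells and a T0 plate measured on day 0. Cells: UM-UC-9 engineered assay-ready stocks, 500 cells/well in high-glucose DMEM with 10% FBS, 37° C, 5% CO2.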

The target in the next assay is T1, His6-TEV-PPARγ-(234-505) (Homo sapiens, UniProt P37231).
T1 construct: The His6-TEV-PPARγ-(234-505) protein for assay was expressed and purified; TEV cleavage site (N); made in house
T1 sequence (P37231 234-505): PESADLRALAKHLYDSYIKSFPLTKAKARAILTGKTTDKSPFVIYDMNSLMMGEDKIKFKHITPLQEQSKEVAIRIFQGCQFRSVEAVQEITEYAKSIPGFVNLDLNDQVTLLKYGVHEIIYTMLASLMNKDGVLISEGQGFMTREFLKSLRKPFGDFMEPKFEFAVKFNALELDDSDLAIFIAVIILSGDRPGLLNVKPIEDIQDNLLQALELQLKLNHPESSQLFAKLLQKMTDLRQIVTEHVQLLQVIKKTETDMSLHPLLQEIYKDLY
Kind of assay: TR-FRET Assay to Measure Co-R Peptide Recruitment to PPARγ. The format is biochemical. The note with it: Co-R peptide (SMRT-ID2) recruitment; top final concentration 20 μM; read-out: TR-FRET i-Ag; AC50. In short, it runs like this:
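Corepressor recruitment is measured by adding terbium-labeled anti-His antibody and FITC SMRT-ID2 peptide, at 5 and 200 nM final, after a 20-minute room-temperature protein–compound incubation. After one further hour, signal is converted to percent response between DMSO and 500 nM T0070907 wells.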
On the technique in general: Time-resolved FRET reads energy transfer from a long-lived donor to a nearby acceptor.

Like-named read-outs stand apart in the source and are kept apart here.

For the compound `COc1cc(-c2cc(C(=O)N3[C@@H]4CC[C@H]3C[C@H](C(=O)NC3CC[Si](C)(C)CC3)C4)n[nH]2)c(F)cn1` [Example 291, (1R,3s,5S)—N-(1,1-dimethylsilinan-4-yl)-8-(5-(5-fluoro-2-methoxypyridin-4-yl)-1H-pyrazole-3-carbonyl)-8-azabicyclo[3.2.1]octane-3-carboxamide], in the assay with UM-UC-9 engineered cells (Homo sapiens, UM-UC-9, 144 h), the IC50 was 150 nM. Besides, on His6-TEV-PPARγ-(234-505), the AC50 came to 69.6 nM.

For `COc1cc(-c2cc(C(=O)N3CCC(C(=O)NC4CCC(C)CC4)CC3)n[nH]2)c(F)cn1` (mixture of isomers) [Example 114, 1-(5-(5-fluoro-2-methoxypyridin-4-yl)-1H-pyrazole-3-carbonyl)-N-((1s,4s)-4-methylcyclohexyl)piperidine-4-carboxamide and 1-(5-(5-fluoro-2-methoxypyridin-4-yl)-1H-pyrazole-3-carbonyl)-N-((1r,4r)-4-methylcyclohexyl)piperidine-4-carboxamide], the IC50 with UM-UC-9 engineered cells was 120 nM. Moreover, on His6-TEV-PPARγ-(234-505), the AC50 was 78.5 nM.

Turning to `COc1cc(-c2cc(C(=O)N3CCC(C(=O)N[C@H]4CC[C@@](O)(C(F)(F)F)CC4)CC34COC4)n[nH]2)c(F)cn1` (stereo partly shown) [Example 444, 5-(5-(5-fluoro-2-methoxypyridin-4-yl)-1H-pyrazole-3-carbonyl)-N-((1r,4r)-4-hydroxy-4-(trifluoromethyl)cyclohexyl)-2-oxa-5-azaspiro[3.5]nonane-8-carboxamide], the IC50 in the assay with UM-UC-9 engineered cells (Homo sapiens, UM-UC-9, 144 h) was more than 10000 nM. For the same compound, the AC50 on His6-TEV-PPARγ-(234-505) turned out to be 113 nM.

Regarding `COc1cc(-c2cc(C(=O)N3CCC(C(=O)NCc4c(F)ccc5[nH]cnc45)CC3)n[nH]2)c(Cl)cn1` [Example 243, 1-(5-(5-chloro-2-methoxypyridin-4-yl)-1H-pyrazole-3-carbonyl)-N-((5-fluoro-1H-benzo[d]imidazol-4-yl)methyl)piperidine-4-carboxamide], in the assay with UM-UC-9 engineered cells (Homo sapiens, UM-UC-9, 144 h), the IC50 turned out to be 414 nM. In addition, the AC50 on His6-TEV-PPARγ-(234-505) came out at 25.8 nM.

In the case of `COc1cc(-c2cc(C(=O)N3CCC(C(=O)NC4CN(c5cnc(C)cn5)CC4(F)F)CC34CC4)n[nH]2)c(F)cn1` (mixture of isomers) [Example 490, (S)—N—((S)-4,4-difluoro-1-(5-methylpyrazin-2-yl)pyrrolidin-3-yl)-4-(5-(5-fluoro-2-methoxypyridin-4-yl)-1H-pyrazole-3-carbonyl)-4-azaspiro[2.5]octane-7-carboxamide and (S)—N—((R)-4,4-difluoro-1-(5-methylpyrazin-2-yl)pyrrolidin-3-yl)-4-(5-(5-fluoro-2-methoxypyridin-4-yl)-1H-pyrazole-3-carbonyl)-4-azaspiro[2.5]octane-7-carboxamide], the IC50 with UM-UC-9 engineered cells amounted to 17.3 nM. Moreover, the AC50 on His6-TEV-PPARγ-(234-505) is 1.9 nM.

For `COc1cc(-c2cc(C(=O)N3[C@@H]4CC[C@H]3C[C@H](C(=O)NC3CCC5(CC3)OCC(F)C5F)C4)n[nH]2)c(F)cn1` (stereo partly drawn) [Example 319, (1R,3s,5S)—N-(3,41-difluoro-1-oxaspiro[4.5]decan-8-yl)-8-(5-(5-fluoro-2-methoxypyridin-4-yl)-1H-pyrazole-3-carbonyl)-8-azabicyclo[3.2.1]octane-3-carboxamide], the IC50 in the assay on UM-UC-9 engineered cells (Homo sapiens, UM-UC-9, 144 h) turned out to be 232 nM. In addition, the AC50 at His6-TEV-PPARγ-(234-505) was 124 nM.

On to `COc1cc(-c2cc(C(=O)N3CCC(C(=O)NC4CC(=O)N(c5ccccc5)C4)CC3)n[nH]2)c(Cl)cn1` (stereo not shown) [Example 183, 1-(5-(5-chloro-2-methoxypyridin-4-yl)-1H-pyrazole-3-carbonyl)-N-(5-oxo-1-phenylpyrrolidin-3-yl)piperidine-4-carboxamide], for which, in the assay with UM-UC-9 engineered cells (Homo sapiens, UM-UC-9, 144 h), the IC50 was 1650 nM. In addition, the AC50 on His6-TEV-PPARγ-(234-505) was determined as 233 nM.

With `COc1cc(-c2cc(C(=O)N3CC[C@H](C(=O)NC4CCC(N5CCOCC5)CC4)CC34CC4)n[nH]2)c(F)cn1` (single isomer, unassigned) [Example 418-A], the IC50 in the assay with UM-UC-9 engineered cells (Homo sapiens, UM-UC-9, 144 h) was 152 nM. Moreover, on His6-TEV-PPARγ-(234-505), the AC50 was 67.4 nM.

For `COc1cnc(CNC(=O)[C@H]2CCN(C(=O)c3cc(-c4cc(OC)ncc4F)[nH]n3)C3(CC3)C2)nc1` [Example 455, (S)-4-(5-(5-fluoro-2-methoxypyridin-4-yl)-1H-pyrazole-3-carbonyl)-N-((5-methoxypyrimidin-2-yl)methyl)-4-azaspiro[2.5]octane-7-carboxamide], in the assay on UM-UC-9 engineered cells (Homo sapiens, UM-UC-9, 144 h), the IC50 amounted to 213 nM. Besides, the AC50 at His6-TEV-PPARγ-(234-505) came to 67.9 nM.

Turning to `COc1cc(-c2cc(C(=O)N3CCC(C(=O)NC45CC(CO)(C4)OC5C)CC34CC4)n[nH]2)c(F)cn1` (mixture of isomers) [Example 518, (S)-4-(5-(5-fluoro-2-methoxypyridin-4-yl)-1H-pyrazole-3-carbonyl)-N—((R)-1-(hydroxymethyl)-3-methyl-2-oxabicyclo[2.1.1]hexan-4-yl)-4-azaspiro[2.5]octane-7-carboxamide and (S)-4-(5-(5-fluoro-2-methoxypyridin-4-yl)-1H-pyrazole-3-carbonyl)-N—((S)-1-(hydroxymethyl)-3-methyl-2-oxabicyclo[2.1.1]hexan-4-yl)-4-azaspiro[2.5]octane-7-carboxamide], the IC50 in the assay on UM-UC-9 engineered cells stood at 4050 nM. On His6-TEV-PPARγ-(234-505), the AC50 was 149 nM.

In the case of `COc1cc(-c2cc(C(=O)N3CC[C@H](C(=O)NC4CCN(CC5(O)COC5)C4)CC34CC4)n[nH]2)c(F)cn1` (single isomer, unassigned) [Example 454-A], in the assay on UM-UC-9 engineered cells, the IC50 came out at 1790 nM. The AC50 at His6-TEV-PPARγ-(234-505) is 88.7 nM.

As for `COc1cc(-c2cc(C(=O)N3CC[C@H](C(=O)Nc4cnn5ccc(C)nc45)CC34CC4)n[nH]2)c(F)cn1` [Example 381, (S)-4-(5-(5-fluoro-2-methoxypyridin-4-yl)-1H-pyrazole-3-carbonyl)-N-(5-methylpyrazolo[1,5-a]pyrimidin-3-yl)-4-azaspiro[2.5]octane-7-carboxamide], the IC50 with UM-UC-9 engineered cells (Homo sapiens, UM-UC-9, 144 h) was 5.8 nM. For the same compound, the AC50 on His6-TEV-PPARγ-(234-505) came to 12.3 nM.

Take `COc1cc(-c2cc(C(=O)N3C4CCC3CC(C(=O)NC3CCC(C(F)(F)F)N(C)C3)C4)n[nH]2)c(F)cn1` (mixture of isomers) [Example 306-A]: in the assay with UM-UC-9 engineered cells (Homo sapiens, UM-UC-9, 144 h), the IC50 is 78.8 nM. Moreover, on His6-TEV-PPARγ-(234-505), the AC50 came to 13.9 nM.

With `Cc1cc(-c2cc(C(=O)N3[C@@H]4CC[C@H]3C[C@H](C(=O)N[C@H]3CC[C@@](O)(C(F)(F)F)CC3)C4)n[nH]2)c(F)cn1` [Example 283, (1R,3R,5S)-8-[5-(5-fluoro-2-methylpyridin-4-yl)-1H-pyrazole-3-carbonyl]-N-[(1r,4r)-4-hydroxy-4-(trifluoromethyl)cyclohexyl]-8-azabicyclo[3.2.1]octane-3-carboxamide], the IC50 in the assay with UM-UC-9 engineered cells (Homo sapiens, UM-UC-9, 144 h) turned out to be 70.8 nM. For the same compound, the AC50 on His6-TEV-PPARγ-(234-505) is 7.5 nM.

Regarding `COc1cc(-c2cc(C(=O)N3CC[C@H](C(=O)NCc4cnccc4C(F)(F)F)CC34CC4)n[nH]2)c(F)cn1` [Example 516, (S)-4-(5-(5-fluoro-2-methoxypyridin-4-yl)-1H-pyrazole-3-carbonyl)-N-((4-(trifluoromethyl)pyridin-3-yl)methyl)-4-azaspiro[2.5]octane-7-carboxamide], in the assay with UM-UC-9 engineered cells (Homo sapiens, UM-UC-9, 144 h), the IC50 stood at 10 nM. The AC50 on His6-TEV-PPARγ-(234-505) was 3.3 nM.

On to `COc1cc(-c2cc(C(=O)N3CCC(C(=O)NCc4ncc(C(F)(F)F)cc4Cl)CC3)n[nH]2)c(Cl)cn1` [Example 193, 1-(5-(5-chloro-2-methoxypyridin-4-yl)-1H-pyrazole-3-carbonyl)-N-((3-chloro-5-(trifluoromethyl)pyridin-2-yl)methyl)piperidine-4-carboxamide], for which the IC50 in the assay with UM-UC-9 engineered cells (Homo sapiens, UM-UC-9, 144 h) was determined as 1200 nM. Also, the AC50 on His6-TEV-PPARγ-(234-505) was determined as 394 nM.

On to `COc1cc(-c2cc(C(=O)N3CCC(C(=O)NC(C)c4cn5c(n4)COCC5)CC34CC4)n[nH]2)c(F)cn1` (mixture of isomers) [Example 415, (S)—N—((S)-1-(5,6-dihydro-8-imidazo[2,1-c][1,4]oxazin-2-yl)ethyl)-4-(5-(5-fluoro-2-methoxypyridin-4-yl)-1H-pyrazole-3-carbonyl)-4-azaspiro[2.5]octane-7-carboxamide and (S)—N—((R)-1-(5,6-dihydro-8H-imidazo[2,1-c][1,4]oxazin-2-yl)ethyl)-4-(5-(5-fluoro-2-methoxypyridin-4-yl)-1H-pyrazole-3-carbonyl)-4-azaspiro[2.5]octane-7-carboxamide], for which the IC50 with UM-UC-9 engineered cells amounted to 524 nM. Also, at His6-TEV-PPARγ-(234-505), the AC50 amounted to 163 nM.

Regarding `COc1cc(-c2cc(C(=O)N3CCC(C(=O)NC4CCN(c5ccccc5)C4=O)CC3)n[nH]2)c(Cl)cn1` (racemic) [Example 207, 1-(5-(5-chloro-2-methoxypyridin-4-yl)-1H-pyrazole-3-carbonyl)-N-(2-oxo-1-phenylpyrrolidin-3-yl)piperidine-4-carboxamide], the IC50 in the assay with UM-UC-9 engineered cells (Homo sapiens, UM-UC-9, 144 h) stood at 5670 nM. Besides, at His6-TEV-PPARγ-(234-505), the AC50 came out at 889 nM.

`COc1cc(-c2cc(C(=O)N3CCC(C(=O)NCc4ccc5cnccc5c4)CC3)n[nH]2)c(Cl)cn1` [Example 182, 1-(5-(5-chloro-2-methoxypyridin-4-yl)-1H-pyrazole-3-carbonyl)-N (isoquinolin-6-ylmethyl)piperidine-4-carboxamide]: the IC50 with UM-UC-9 engineered cells (Homo sapiens, UM-UC-9, 144 h) amounted to 1600 nM. The AC50 at His6-TEV-PPARγ-(234-505) came out at 422 nM.

Take `COc1cc(-c2cc(C(=O)N3CC[C@H](C(=O)NC(C)c4cc5n(n4)CCN(C)C5)CC34CC4)n[nH]2)c(F)cn1` (single isomer, unassigned) [Example 475-B]: the IC50 in the assay on UM-UC-9 engineered cells was 583 nM. In addition, the AC50 at His6-TEV-PPARγ-(234-505) was 102 nM.

The values are drawn from patent US12606541B2, “PPARg modulators and methods of use” (Eisai R&D Management Co., Ltd., priority 2020, dated 2026).
